Results as given in patent publication US20240325760A1, “METHODS FOR DETECTING AND PREVENTING ALZHEIMER'S DISEASE AND MILD COGNITIVE IMPAIRMENT” (RAMOT AT TEL-AVIV UNIVERSITY LTD., priority 2021, published 2024).
“And” between values parts separate entries of the source, which are not always exact repeats. Equal entries are not always repeated. “Also recorded” adds a separate entry of the source.

Legend:
[1] = system: anesthetized APP/PS1 mice; assay: LFP recording of epileptiform high-voltage CA1 spikes under anesthesia; format: in vivo
Procedure: For intracerebroventricular (ICV) ainjections, a small hole was drilled in the skull above the left lateral ventricle (0.7 mm posterior, 1.2 mm lateral to bregma), and a 5 mm guide cannula was slowly inserted into the ventricle and fixed to the skull by dental cement (C&B Metabond, Parkell). The guide cannula was sealed with a 5 mm sterile metal bar to prevent CSF leakage and possible infections. 1-2 weeks after the surgery, the mice received ICV injections using a 10 μl syringe (Hamilton). The mice were injected with 1 μl containing 27 μg of teriflunomide (TERI), dissolved in DMSO or vehicle (1 μl of DMSO) with speed of 0.15 μl/min (Nano Jet stereotaxic syringe pump).
LFP/fEPSP recordings. Small diameter holes were drilled in the skull at the position of the recording and stimulating electrodes. […] Ground electrode was screwed to the skull above the cerebellum. Test stimuli of 50-100 μA were delivered to the SC at 0.06 Hz to verify the proper location of the electrodes and to estimate the stability of the signal. The electrodes were firmly fixed to the skull by dental cement (C&B Metabond, Parkell) and dental acrylic. Operated mice recovered in their home cage for at least a week following electrodes implantation. For evoked field excitatory postsynaptic potential (fEPSP) recordings in CA3-CA1 synapses in awake mice (FIGS. 1F-1G), mice were habituated for a few days to the experimental device that was composed from a running wheel and metal bar in which the mice were head fixed into throughout the experiment with a screw. Following habituation, the mice were head fixed to the experimental device, and CA3-CA1 fEPSP measurements were taken 30 minutes after.
Ca^2+ imaging and LFP recording in anesthetized mice. For Ca^2+ imaging and LFP recording sessions during anesthesia, mice were placed in an induction chamber connected to isoflurane vaporizer (Isotec 5), gas flow rate was turned on to 0.8 LPM (litre per minute) and the vaporizer was set at 5% isoflurane. […] Respiration and heart rate were monitored and analyzed by the physiological monitoring system. […] Temperature was also maintained by the device at 37° C. throughout the procedure.
Detection of pathological spikes in fAD models. High-voltage pathological spikes were detected by setting a threshold of 10 z-scores above and below the mean voltage during the suppression epochs of the recording and accepted only if their peak-to-peak value within 30 ms was greater than 10 z-scores. A dead-time of 50 ms was set to assure the same spike was not counted twice. Subsequently, all spikes were manually inspected and approved.

nRE-CA1 synapses = assay: nRE-CA1 synaptic transmission in APP/PS1 mice expressing hM4D(Gi)-mCherry; format: in vivo, mouse; settings: data not shown
[2] = system: cultured hippocampal neurons (hippocampal networks ex vivo); assay: Mean firing rate (MFR) of hippocampal cultures on multi-electrode arrays; format: cell-based, mouse; settings: for network MFR after isoflurane application: isoflurane 1%, 24 hour
Procedure: Multi-electrode array (MEA). Postnatal hippocampal cultures were plated on MEA plates containing 120 titanium nitride (TiN) electrodes, in addition to 4 internal reference and 4 ground electrodes (Styr et al., 2019). Each electrode has a diameter of 30 μm and electrodes are arranged in a 12×12 grid (sparing 6 electrodes in each corner), spaced 100-200 μm apart on average (Multi Channel Systems, 120MEA200/30iR-Ti). Data acquisition was done in 3-weeks-old cultures using a standard MEA2100-Systems with a hardware filter cut-off of 3.3 kHz and sampling rate of 10 kHz per electrode. Recordings were carried out under constant 37° C. and 5% CO2 levels.
Data analysis: Raw data was filtered, offline, at 200 Hz using a Butterworth high-pass filter. Spikes were then detected, offline, using MC_Rack software (Multi Channel Systems) based on a fixed threshold set to between 5-6 standard deviations from mean. Twenty minutes of each hour (that were previously shown to reliably represent the MFR of the entire hour, were used for analysis to reduce processing time and analyzed using custom-written scripts in MATLAB (Mathworks) as previously described (Slomowitz et al., 2015). Channels with unstable (>30% change of MFR) baseline recordings during 3-4 hours prior to a perturbation were excluded from the analysis.

[3] = system: CA3-CA1 synaptic connections in hippocampal slices; assay: Dose-response of TERI on fEPSP amplitude in acute hippocampal slices; format: cell-based, mouse
Procedure: Electrophysiology in slices. Acute hippocampal slices (coronal, 400 μm) were prepared from WT and APP/PS1 mice. Slices were transferred to a submerged recovery chamber at 32° C. containing oxygenated (95% O2 and 5% CO2) artificial cerebrospinal fluid (ACSF) for 1 h before the experiment. The ACSF contained, in mM: NaCl, 125; KCl, 2.5; CaCl2, 1.2; MgCl2, 1.2; NaHCO3, 25; NaH2PO4, 1.25; glucose, 25. fEPSPs were recorded in acute hippocampal slices with a glass pipette containing Tyrode solution (1-2 MΩ) from synapses in the CA1 using a MultiClamp700B amplifier (Molecular Devices). Stimulation of the Shaffer Collateral (SC) pathway was delivered through a glass suction electrode (10-20 μm tip) filled with Tyrode. Data were analyzed using pClamp10 (Molecular Devices).

[4] = system: CA1 neuronal populations of WT and APP/PS1 mice; assay: Ca2+ imaging of CA1 population activity under anesthesia; format: in vivo, mouse
APP/PS1 mice = assay: Spatial working memory, delta-maze alternation test after general anesthesia; format: in vivo, mouse; settings: 4-5-month-old APP/PS1 mice; isoflurane inhalation 1.5%, 3 hour; 10, 20 and 60 sec delays

C[N+]1([O-])CCN(C2=Nc3cc(Cl)ccc3Nc3ccccc32)CC1 [CNO]
decrease in the rate of epileptiform CA1 spikes vs vehicle ([1]; i.p. 5 mg/kg, anesthetized APP/PS1 mice expressing hM4D(Gi)-mCherry in nRE-CA1 synapses): ~53% | nRE-CA1 synaptic transmission (nRE-CA1 synapses): suppressed

C/C(O)=C(\C#N)C(=O)Nc1ccc(C(F)(F)F)cc1 [TERI, (2Z)-2-cyano-3-hydroxy-N-[4-(trifluoromethyl)phenyl]but-2-enamide]
negative regulation of MFR set points by TERI ([2]; APP/PS1 networks ex vivo, data not shown): preserved | reduction in the frequency of high-voltage CA1 spikes vs baseline ([1]; ICV 27 μg in 1 μl, anesthetized APP/PS1 mice): ~50% and 50.7±7.2% | frequency of high-voltage spikes after TERI ICV injection ([1]; ICV 27 μg in 1 μl, baseline 7.6±1.4 per min, n=9 anesthetized APP/PS1 mice): 3.8±0.95 per min | IC50 ([3]; Mus musculus, hippocampal slices of APP/PS1 mice): 19.1 µM | IC50 ([3]; Mus musculus, hippocampal slices of WT mice): 17.6 µM | IC50 ([3]; hippocampal slices of APP/PS1 mice): 19.2 ± 1 µM

NC1=N[C@H](O)[C@H]2[C@H]3O[C@]4(O)O[C@@H]([C@@H](O)[C@@]2(N1)[C@@H]4O)[C@]3(O)CO [TTX, tetrodotoxin]
rate of epileptiform CA1 spikes vs baseline ([1]; mouse, in vivo): profound decrease; also recorded: reduction

NCC(CC(=O)O)c1ccc(Cl)cc1 (stereo not shown) [baclofen]
MFR homeostatic response to chronic inactivity ([2]; baclofen 10 μM, WT and APP/PS1 networks, first day of perturbation): homeostatically compensated

COc1ccc(-c2ccc(=N)n(CCCC(=O)O)n2)cc1 [gabazine]
MFR renormalization following 2 days of gabazine application ([2]; 30 μM, APP/PS1 neurons): disrupted | population firing rate on gabazine application (acute) ([2]; 30 μM, WT networks): fast and pronounced increase | MFR following 2 days of gabazine application ([2]; 30 μM, WT neurons): renormalized to the baseline level

FC(F)OC(Cl)C(F)(F)F (stereo not shown) [isoflurane]
network MFR after isoflurane application ([2]; APP/PS1 cultures): 112.5±8.7 % of baseline | network MFR after isoflurane application ([2]; WT cultures): 42.0±0.9 % of baseline | epileptiform high-voltage spikes in CA1 ([1]; 4-5 months old APP/PS1 mice under general anesthesia (1.5% isoflurane)): 3.22±0.51 per min | CA1 activity under anesthesia ([4]; APP/PS1 mice): maintained constant | suppression of total CA1 activity ([4]; WT mice, deep anesthesia (1.5% isoflurane)): ~87% | suppression of total CA1 activity ([4]; WT mice, moderate anesthesia (1% isoflurane)): ~57% | choice accuracy in delta maze following anesthesia (APP/PS1 mice): decrease in choice accuracy

Cc1cccc(C(C)c2cnc[nH]2)c1C (stereo not shown) [medetomidine]
CA1 activity under anesthesia ([4]; APP/PS1 mice): much lower level of suppression | CA1 activity under anesthesia ([4]; WT mice, data not shown): pronounced inhibition of CA1 activity
